Our source for the inhibition values is US9416115B2, “Fused heterocyclic compounds as ion channel modulators” (Gilead Sciences, Inc., priority 2013, dated 2016).

Assay [1] deals with hNav1.1 (SCN1A) (Homo sapiens, UniProt P35498). Kind of assay: Use-dependent inhibition of the CNS Nav1.1 sodium channel. As to conditions: use-dependent block, 25 Hz, pulse 20, read-out: Nav1.1 UDB 25 Hz 10 uM. Format: cell-based. How it is done: HEK-293 cells stably expressing wild-type (WT) hNav1.1 (SCN1A, NCBI# AB09354) were obtained from Millipore (Cat. # CYL3009) were used to record INa. Cells are maintained with standard tissue culture procedures and stable channel expression is maintained with 400 ug/mL G418 in the culture medium. Unless otherwise noted, all reagents are purchased from Sigma-Aldrich (St Louis, Mo., U.S.A.).
Assays measuring Use-Dependent Block (UDB) of Nav1.2 are performed on an automated electrophysiology platform, QPatch 16X or QPatch HT (Sophion Bioscience, Copenhagen, Denmark), using the whole cell patch clamp technique to measure currents through the cell membrane. Series resistance compensation is set to 100% and series resistance and whole-cell compensation are performed automatically. Currents stored in the Sophion Bioscience Oracle database (Sophion Bioscience, Copenhagen, Denmark). Analysis is performed using QPatch Assay software and data are compiled in Excel 2010 (Microsoft, Seattle, Wash., U.S.A.).
The internal (pipette) solution consists of (in mM) 105 CsF, 10 NaF, 20 CsCl, 2 EGTA, 10 HEPES, 10 Dextrose with a pH of 7.35 and osmolarity of 300 mOsmol/kg. The external (bath) solution contains in (mM): 145 NaCl, 4 KCl, 1.8 CaCl2, 1 MgCl2, 10 dextrose, 10 HEPES, with a pH of 7.35 and osmolarity of 310 mOsmol/kg. Experiments are carried out at 23-25° C.
Compound stocks are routinely made by the Gilead Sample Bank in vials to 10 mM in dimethyl sulfoxide (DMSO). In some cases, when compounds are not soluble in DMSO, they are made in 100% ethanol. Stocks are sonicated as necessary. […]
Cells are allowed to stabilize for 10 min after establishment of the whole-cell configuration before current is measured. The test compound is applied 2 times at 60 second intervals. After the second compound addition, a 200 second wait period was imposed to allow for equilibration. Leak currents are subtracted by using an online P/4 procedure and all currents are low-pass Bessel filtered at 5 kHz and digitized at […].
Use-dependent block of Nav1.2 peak current is measured during pulse number 20 of a voltage pulse train (0 mV, 20 ms, 20 pulses, 25 Hz) from a holding potential of −120 mV. Currents are normalized to the peak current recorded in response to the first pulse in each frequency train. The voltage protocol for UDB was performed in the absence and presence of compound and percentage inhibition was calculated with respect to the compound free condition. Results are presented as mean percentage inhibition and data analysis is performed using QPatch Assay Software 4.0, and Excel 2002 (Microsoft, Seattle, Wash., U.S.A.).

Assay [2] concerns the target wild-type human cardiac sodium channel, hNav1.5 (Homo sapiens, UniProt Q14524). Kind of assay: Late INa screening assay (QPatch whole cell patch clamp, Tefluthrin-induced late current). It counts as cell-based. As to conditions: HEK293 hNav1.5, percent block of late INa. In a few lines: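 HEK293 cells stably expressing hNav1.5 without beta subunits were whole-cell patch clamped at 23-25 °C, stepping from −120 to −20 mV for 250 ms at 0.1 Hz. Late current (240–265 ms) was induced with 10 μM Tefluthrin, and compounds were added typically at 0.3 or 1 μM. Percent block was taken against 0 Na baseline with rundown correction.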

wild-type human cardiac sodium channel, hNav1.5, sequence (Q14524 whole entry): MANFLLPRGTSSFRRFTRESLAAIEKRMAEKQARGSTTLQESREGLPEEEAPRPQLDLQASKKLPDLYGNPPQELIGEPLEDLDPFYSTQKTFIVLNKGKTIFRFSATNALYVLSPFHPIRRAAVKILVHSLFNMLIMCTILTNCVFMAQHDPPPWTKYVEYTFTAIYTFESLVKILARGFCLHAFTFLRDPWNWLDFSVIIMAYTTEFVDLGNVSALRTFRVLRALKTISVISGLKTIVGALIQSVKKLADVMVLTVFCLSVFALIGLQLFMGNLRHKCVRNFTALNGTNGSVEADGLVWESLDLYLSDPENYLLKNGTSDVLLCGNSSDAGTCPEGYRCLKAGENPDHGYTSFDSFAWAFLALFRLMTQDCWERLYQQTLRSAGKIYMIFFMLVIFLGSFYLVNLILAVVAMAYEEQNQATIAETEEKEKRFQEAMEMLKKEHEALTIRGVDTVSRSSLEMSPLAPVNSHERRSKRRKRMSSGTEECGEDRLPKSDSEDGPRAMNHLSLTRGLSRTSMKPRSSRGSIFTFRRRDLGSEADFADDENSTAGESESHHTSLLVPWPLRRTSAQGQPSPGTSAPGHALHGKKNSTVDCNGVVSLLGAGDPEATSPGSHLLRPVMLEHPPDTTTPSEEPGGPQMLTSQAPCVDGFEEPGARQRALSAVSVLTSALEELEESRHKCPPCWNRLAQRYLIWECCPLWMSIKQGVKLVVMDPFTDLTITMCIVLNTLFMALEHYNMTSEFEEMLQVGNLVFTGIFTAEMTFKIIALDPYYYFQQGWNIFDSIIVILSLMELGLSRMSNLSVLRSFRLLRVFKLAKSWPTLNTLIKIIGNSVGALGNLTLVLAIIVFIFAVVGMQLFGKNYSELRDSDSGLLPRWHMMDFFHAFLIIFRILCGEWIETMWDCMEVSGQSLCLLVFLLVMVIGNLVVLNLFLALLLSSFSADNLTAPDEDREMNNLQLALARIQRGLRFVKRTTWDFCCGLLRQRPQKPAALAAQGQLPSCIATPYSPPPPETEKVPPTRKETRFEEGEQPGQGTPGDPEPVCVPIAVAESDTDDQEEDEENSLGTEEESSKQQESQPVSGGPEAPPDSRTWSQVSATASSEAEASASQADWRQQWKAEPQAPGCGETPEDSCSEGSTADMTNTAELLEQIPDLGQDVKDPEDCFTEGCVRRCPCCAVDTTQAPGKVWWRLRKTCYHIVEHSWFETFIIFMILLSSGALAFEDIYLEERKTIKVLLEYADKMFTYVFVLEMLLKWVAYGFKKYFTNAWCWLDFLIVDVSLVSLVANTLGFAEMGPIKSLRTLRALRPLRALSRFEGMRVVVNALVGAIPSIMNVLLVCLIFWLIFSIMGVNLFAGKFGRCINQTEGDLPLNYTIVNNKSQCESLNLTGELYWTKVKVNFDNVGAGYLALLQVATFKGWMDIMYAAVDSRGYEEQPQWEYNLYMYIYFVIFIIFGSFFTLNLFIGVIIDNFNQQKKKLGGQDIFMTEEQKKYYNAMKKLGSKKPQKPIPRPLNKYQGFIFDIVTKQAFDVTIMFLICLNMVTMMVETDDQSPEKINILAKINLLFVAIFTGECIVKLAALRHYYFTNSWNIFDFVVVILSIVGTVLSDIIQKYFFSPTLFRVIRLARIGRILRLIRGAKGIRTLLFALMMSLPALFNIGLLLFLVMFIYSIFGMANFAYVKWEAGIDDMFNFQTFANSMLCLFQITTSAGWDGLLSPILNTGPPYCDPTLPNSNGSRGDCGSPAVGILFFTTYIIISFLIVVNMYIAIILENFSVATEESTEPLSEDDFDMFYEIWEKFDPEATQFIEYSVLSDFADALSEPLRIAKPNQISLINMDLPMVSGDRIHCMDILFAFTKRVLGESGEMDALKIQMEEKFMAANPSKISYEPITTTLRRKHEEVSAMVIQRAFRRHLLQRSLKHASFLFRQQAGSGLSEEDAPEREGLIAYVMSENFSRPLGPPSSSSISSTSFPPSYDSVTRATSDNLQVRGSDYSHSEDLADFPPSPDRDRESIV

For the compound `CCN(CC)C(=O)COc1noc2ccc(-c3ccc(OC(F)(F)F)cc3)cc12` [Example 150, N,N-diethyl-2-((5-(4-(trifluoromethoxy)phenyl)benzo[d]isoxazol-3-yl)oxy)acetamide], the inhibition at 10 µM in assay [1] came to 62.8%. In assay [2], this compound had an inhibition at 0.3 µM of 49.4% and an inhibition at 1 µM of 68.2%.
With `O=C1CCCN1CCNc1noc2ccc(-c3ccc(OC(F)(F)F)cc3)cc12` [Example 135, 1-(2-((5-(4-(trifluoromethoxy)phenyl)benzo[d]isoxazol-3-yl)amino)ethyl)pyrrolidin-2-one], the inhibition at 10 µM in assay [1] turned out to be 87.2%. Further, in assay [2], the inhibition at 0.3 µM amounted to 19.7% and the inhibition at 1 µM was 48.8%.
In the case of `CC(C)c1nccn1-c1noc2ccc(-c3ccc(OC(F)(F)F)cc3)cc12` [Example 144, 3-(2-isopropyl-1H-imidazol-1-yl)-5-(4-(trifluoromethoxy)phenyl)benzo[d]isoxazole], the inhibition at 10 µM in assay [1] amounted to 73.2%. In assay [2], this compound returned an inhibition at 0.3 µM of 25.9% and an inhibition at 1 µM of 55.7%.
For `CC(=O)N1CC(COc2noc3ccc(-c4ccc(OC(F)(F)F)cc4)cc23)C1` [Example 110, 1-(3-(((5-(4-(trifluoromethoxy)phenyl)benzo[d]isoxazol-3-yl)oxy)methyl)azetidin-1-yl)ethan-1-one] the same measures were 77.7%, 25.7% and 62.7%.
With `CC(=O)N1CCOC[C@@H]1COc1noc2ccc(-c3ccc(OC(F)(F)F)cc3)cc12` [Example 116, (R)-1-(3-(((5-(4-(trifluoromethoxy)phenyl)benzo[d]isoxazol-3-yl)oxy)methyl)morpholino)ethan-1-one], the inhibition at 10 µM in assay [1] came out at 70.4%. In assay [2], this compound showed an inhibition at 1 µM of 48.3%.
For `Cc1ncn(-c2noc3ccc(-c4ccc(OC(F)(F)F)cc4)cc23)n1` [Example 141, 3-(3-methyl-1H-1,2,4-triazol-1-yl)-5-(4-(trifluoromethoxy)phenyl)benzo[d]isoxazole] the same measures were 31.5% and 38.6%.
In the case of `FC(F)(F)Oc1ccc(-c2ccc3onc(OCC4CCO4)c3c2)cc1` (centres unmarked) [Example 42, 3-(oxetan-2-ylmethoxy)-5-(4-(trifluoromethoxy)phenyl)benzo[d]isoxazole], in assay [1], the inhibition at 10 µM is less than 5%. In assay [2], this compound had an inhibition at 0.3 µM of 17.5% and an inhibition at 1 µM of 57.3%.
Take `Fc1cccnc1COc1noc2ccc(-c3ccc(OC(F)(F)F)cc3)cc12` [Example 94, 3-((3-fluoropyridin-2-yl)methoxy)-5-(4-(trifluoromethoxy)phenyl)benzo[d]isoxazole]: in assay [1], the inhibition at 10 µM is less than 5%. In assay [2], this compound registered an inhibition at 0.3 µM of 35.1% and an inhibition at 1 µM of 58.7%.
For `FC(F)(F)Oc1ccc(-c2ccc3onc(OC[C@@H]4COCCN4)c3c2)cc1` [Example 113, (S)-3-(morpholin-3-ylmethoxy)-5-(4-(trifluoromethoxy)phenyl)benzo[d]isoxazole] the same measures were 88.4%, 43.9% and 79.9%.
For `Fc1cc(-c2ccc3onc(OCc4ncccn4)c3c2)ccc1Cl` [Example 8, 5-(4-chloro-3-fluorophenyl)-3-(pyrimidin-2-ylmethoxy)benzo[d]isoxazole], in assay [1], the inhibition at 10 µM is less than 5%. Besides, the inhibition at 1 µM in assay [2] was 52.6%.
On to `FC(F)(F)Oc1ccc(-c2ccc3onc(OCc4nnc(C5CC5)o4)c3c2)cc1` [Example 96, 3-((5-cyclopropyl-1,3,4-oxadiazol-2-yl)methoxy)-5-(4-(trifluoromethoxy)phenyl)benzo[d]isoxazole], for which, in assay [1], the inhibition at 10 µM came to 29.4%. In assay [2], this compound returned an inhibition at 0.3 µM of 21.1% and an inhibition at 1 µM of 59.2%.
For `FC(F)(F)Oc1ccc(-c2ccc3onc(NCc4ncco4)c3c2)cc1` [Example 156, N-(oxazol-2-ylmethyl)-5-(4-(trifluoromethoxy)phenyl)benzo[d]isoxazol-3-amine] the same measures were 26.5%, 37.9% and 62.8%.
Turning to `Cc1cc(COc2noc3ccc(-c4ccc(OC(F)(F)F)cc4)cc23)on1` [Example 102, 3-((3-methylisoxazol-5-yl)methoxy)-5-(4-(trifluoromethoxy)phenyl)benzo[d]isoxazole], the inhibition at 10 µM in assay [1] was less than 5%. This compound also had an inhibition at 1 µM in assay [2] of 43.1%.
For `CC(COc1noc2ccc(-c3ccc(OC(F)(F)F)cc3)cc12)n1cccn1` (centres unmarked) [Example 68, 3-(2-(1H-pyrazol-1-yl)propoxy)-5-(4-(trifluoromethoxy)phenyl)benzo[d]isoxazole], the inhibition at 10 µM in assay [1] is less than 5%. Moreover, in assay [2], the inhibition at 0.3 µM turned out to be 35.8% and the inhibition at 1 µM turned out to be 62.2%.
For the compound `O=C(COc1noc2ccc(-c3ccc(OC(F)(F)F)cc3)cc12)N1CCCC1` [Example 121, 1-(pyrrolidin-1-yl)-2-((5-(4-(trifluoromethoxy)phenyl)benzo[d]isoxazol-3-yl)oxy)ethan-1-one], the inhibition at 10 µM in assay [1] was determined as 43.6%. In assay [2], this compound displayed an inhibition at 0.3 µM of 39% and an inhibition at 1 µM of 77.7%.
`FC(F)(F)Oc1ccc(-c2ccc3onc(OCc4cccnn4)c3c2)cc1` [Example 74, 3-(pyridazin-3-ylmethoxy)-5-(4-(trifluoromethoxy)phenyl)benzo[d]isoxazole]: the inhibition at 10 µM in assay [1] is less than 5%. For the same compound, in assay [2], the inhibition at 0.3 µM is 15.7% and the inhibition at 1 µM was 60.9%.
With `CC(C)[C@@H](COc1noc2ccc(-c3ccc(OC(F)(F)F)cc3)cc12)N1CCCC1=O` [Example 120, (S)-1-(3-methyl-1-((5-(4-(trifluoromethoxy)phenyl)benzo[d]isoxazol-3-yl)oxy)butan-2-yl)pyrrolidin-2-one], the inhibition at 10 µM in assay [1] came out at 68.9%. In assay [2], this compound displayed an inhibition at 0.3 µM of 35.8% and an inhibition at 1 µM of 58.2%.
As for `FC(F)(F)Oc1ccc(-c2ccc3onc(OCc4nnc(C5CC5)s4)c3c2)cc1` [Example 154, 3-((5-cyclopropyl-1,3,4-thiadiazol-2-yl)methoxy)-5-(4-(trifluoromethoxy)phenyl)benzo[d]isoxazole], the inhibition at 10 µM in assay [1] came out at 19.8%. Also, in assay [2], the inhibition at 1 µM is 39.2%.
For `FC(F)(F)Oc1ccc(-c2ccc3onc(-n4cnc(-c5ccccc5)c4)c3c2)cc1` [Example 142, 3-(4-phenyl-1H-imidazol-1-yl)-5-(4-(trifluoromethoxy)phenyl)benzo[d]isoxazole] the same measures were 59% and 44%.
Take `FC(F)(F)Oc1ccc(-c2ccc3onc(OCc4cnccn4)c3c2)cc1` [Example 151, 3-(pyrazin-2-ylmethoxy)-5-(4-(trifluoromethoxy)phenyl)benzo[d]isoxazole]: the inhibition at 10 µM in assay [1] was 20%. In assay [2], the inhibition at 0.3 µM was 50.7% and the inhibition at 1 µM was 70.1%.
For `Cc1nnc(COc2noc3c(F)cc(-c4ccc(OC(F)(F)F)cc4)cc23)o1` [Example 155, 7-fluoro-3-((5-methyl-1,3,4-oxadiazol-2-yl)methoxy)-5-(4-(trifluoromethoxy)phenyl)benzo[d]isoxazole] the same measures were 63.5%, 47% and 69.2%.
With `C[C@H](COc1noc2ccc(-c3ccc(OC(F)(F)F)cc3)cc12)N1CCCC1=O` [Example 119, (R)-1-(1-((5-(4-(trifluoromethoxy)phenyl)benzo[d]isoxazol-3-yl)oxy)propan-2-yl)pyrrolidin-2-one], the inhibition at 10 µM in assay [1] is 56.3%. In assay [2], this compound displayed an inhibition at 1 µM of 51.2%.
As to `Cc1cc(-c2ccc(OC(F)(F)F)cc2)cc2c(OCc3cn(C)nn3)noc12` [Example 87, 7-methyl-3-((1-methyl-1H-1,2,3-triazol-4-yl)methoxy)-5-(4-(trifluoromethoxy)phenyl)benzo[d]isoxazole], the inhibition at 10 µM in assay [1] worked out at 90.8%. In assay [2], this compound had an inhibition at 0.3 µM of 18.4% and an inhibition at 1 µM of 62.7%.
